Measurements published in patent publication US20230061456A1, “METHODS AND COMPOSITIONS FOR GENERATING TYPE 1 VESTIBULAR HAIR CELLS” (Decibel Therapeutics, Inc., priority 2020, published 2023).

Columns and labels:
[1] = test system: SPP1 (a Type I HC marker) positive cells in cultured utricles; experiment: SPP1 induction by vitamin A in cultured embryonic and adult utricles; type: cell-based, mouse; conditions: 0.1 μM
Experimental: To further explore these differences of the effect of the retinoic acid pathway on embryonic and adult hair cells, we compared the effects of 0.1 μM vitamin A on cultured utricles from embryonic and adult animals.

[2] = test system: hair cells of embryonic utricles from E15.5 CD1 mice; experiment: scRNAseq of cultured embryonic utricles with vitamin A; type: cell-based, mouse; conditions: E15.5 CD1 utricles; 0.1 μM; 4 days in culture
Experimental: To evaluate the potential for this pathway to modulate type I hair cell fate, we dissected and cultured embryonic utricles from E15.5 CD1 mice in the presence or absence of 0.1 μM vitamin A (retinoic acid precursor). After 4 days in culture the cells were dissociated, and single cells were captured for scRNAseq. Downstream analysis of the scRNAseq data was performed and representative transcripts used to define type I hair cells (Kcna10 and Lpgat1) and type II hair cells (Mgst3 and DIk2) were selected from the data.

For vitamin A, the “number of SPP1-positive cells, embryonic tissue” value [1] was “dramatically increased”, the “expression of transcripts typically associated with type I hair cells (Kcna10, Lpgat1)” value [2] was “increased expression” and the “expression of transcripts typically associated with type II hair cells (Mgst3, Dlk2)” value [2] was “decreased expression”.
